According to US8987314B2, “Amide, urea or sulfone amide linked benzothiazole inhibitors of endothelial lipase” (Bristol-Myers Squibb Company, priority 2012, dated 2015):

What was measured:
Endothelial lipase (EL) = Endothelial lipase (EL) (Homo sapiens (Human), UniProt Q9Y5X9); test: EL assay: endothelial lipase activity with fluorescent substrate A10070 in DMPG vesicles; assay type: biochemical
Summary of the method: (§1)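 EL from conditioned medium of HT-1080 cells engineered to overexpress endogenous EL; HL partially purified from conditioned medium of HL-overexpressing COS cells. Enzyme preincubated with compound 30 min at 37° C in 50 mM HEPES pH 8.0, 50 mM NaCl, 1 mM CaCl2; DMPG vesicles carrying FRET substrate (0.11 mole fraction) then added.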

hepatic lipase (HL) = hepatic lipase (HL) (Homo sapiens (Human), UniProt P11150); test: HL assay: hepatic lipase activity with fluorescent substrate A10070 in DMPG vesicles; assay type: biochemical
Sequence of hepatic lipase (HL) (P11150 23-499, species assumed): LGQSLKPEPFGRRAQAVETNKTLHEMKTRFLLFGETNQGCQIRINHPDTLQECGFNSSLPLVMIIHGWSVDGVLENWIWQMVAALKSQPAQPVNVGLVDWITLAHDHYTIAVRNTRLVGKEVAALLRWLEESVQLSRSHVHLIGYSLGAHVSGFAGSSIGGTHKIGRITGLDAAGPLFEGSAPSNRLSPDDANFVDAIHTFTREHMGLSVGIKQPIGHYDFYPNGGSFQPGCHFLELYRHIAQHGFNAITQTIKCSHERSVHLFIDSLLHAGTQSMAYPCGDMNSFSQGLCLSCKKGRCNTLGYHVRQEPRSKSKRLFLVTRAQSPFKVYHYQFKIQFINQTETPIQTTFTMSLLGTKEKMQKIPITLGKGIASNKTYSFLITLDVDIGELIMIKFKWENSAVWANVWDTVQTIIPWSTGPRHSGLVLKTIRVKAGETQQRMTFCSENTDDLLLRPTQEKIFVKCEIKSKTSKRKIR
Summary of the method: as §1

Sequence of Endothelial lipase (EL) (Q9Y5X9 21-500): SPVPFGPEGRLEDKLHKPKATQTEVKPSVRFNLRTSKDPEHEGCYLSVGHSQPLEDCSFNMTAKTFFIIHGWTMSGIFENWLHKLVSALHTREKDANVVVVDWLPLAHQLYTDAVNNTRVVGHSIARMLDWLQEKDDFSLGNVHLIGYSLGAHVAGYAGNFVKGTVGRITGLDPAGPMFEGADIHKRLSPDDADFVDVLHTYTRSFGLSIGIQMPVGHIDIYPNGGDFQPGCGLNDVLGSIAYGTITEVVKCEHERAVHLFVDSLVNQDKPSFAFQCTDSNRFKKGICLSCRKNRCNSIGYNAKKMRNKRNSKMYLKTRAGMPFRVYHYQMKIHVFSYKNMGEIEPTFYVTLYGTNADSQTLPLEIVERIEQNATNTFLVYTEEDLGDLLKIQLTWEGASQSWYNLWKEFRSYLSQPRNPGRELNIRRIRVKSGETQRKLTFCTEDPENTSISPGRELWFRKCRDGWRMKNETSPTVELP

Structure (SMILES) | IC50 (Endothelial lipase (EL)) | IC50 (hepatic lipase (HL))
COCCNC(=O)c1ccc(-c2ccc3nc(C(C(=O)NCCS(N)(=O)=O)S(=O)(=O)Cc4cccc(C#N)c4)sc3c2)cc1 (stereo not shown) [Example B115] | 1.2 nM | 107 nM
NS(=O)(=O)CCNC(=O)C(c1nc2ccc(-c3ccccc3)cc2s1)S(=O)(=O)Cc1ccc(F)cc1 (stereo not shown) [Example B119, 2-((4-fluorobenzyl)sul-fonyl)-2-(6-phenyl-1,3-benzothiazol-2-yl)-N-(2-sulfamoylethyl)acetamide] | < 10 nM | 11 nM
COc1ccc(CN(Cc2ccc(OC)cc2)S(=O)(=O)CCNC(=O)C(c2nc3ccc(-c4ccccc4)cc3s2)S(C)(=O)=O)cc1 (stereo not shown) [Example B121, N-(2-(bis(4-methoxybenzyl)sulfamoyl)eth-yl)-2-(methylsulfonyl)-2-(6-phenyl-1,3-benzothiazol-2-yl)a-cetamide] | 80 nM | 11 nM
NS(=O)(=O)CCNC(=O)C(c1nc2ccc(-c3cnn(CCN4CCOCC4)c3)cc2s1)S(=O)(=O)Cc1ccccc1 (stereo not shown) [Example B122, 2-(benzylsulfonyl)-2-(6-{1-[2-(4-morpholinyl)ethyl]-1H-pyrazol-4-yl}-1,3-benzothiazol-2-yl)-N-(2-sulfamoylethyl)acetamide] | 44 nM | 631 nM
NS(=O)(=O)CCNC(=O)C(c1nc2ccc(Br)cc2s1)S(=O)(=O)CCC(F)(F)F (stereo not shown) [Example B125, 2-(6-bromo-1,3-benzothiazol-2-yl)-N-(2-sulfamoylethyl)-2-((3,3,3-trifluoropropyl)sulfonyl)a-cetamide] | 99 nM | 300 nM
NS(=O)(=O)CCNC(=O)C(c1nc2ccc(-c3ccnc(F)c3)cc2s1)S(=O)(=O)Cc1ccccc1 (stereo not shown) [Example B126, 2-(benzylsulfonyl)-2-(6-(2-fluoro-4-pyridinyl)-1,3-benzothiazol-2-yl)-N-(2-sulfamoylethyl)acetamide] | < 10 nM | 51 nM
NS(=O)(=O)CCNC(=O)C(c1nc2ccc(-c3cnn(CCN4CCOCC4)c3)cc2s1)S(=O)(=O)CCCC(F)(F)F (stereo not shown) [Example B127, 2-(6-(1-(2-(4-morpholinyl)eth-yl)-1H-pyrazol-4-yl)-1,3-benzothiazol-2-yl)-N-(2-sulfamoylethyl)-2-((4,4,4-trifluorobutyl)sul-fonyl)acetamide] | < 10 nM | 933 nM
Cc1cc2nc(C(C(=O)NCCS(N)(=O)=O)S(=O)(=O)CCC(F)(F)F)sc2cc1-c1ccc(F)nc1 (stereo not shown) [Example B130, 2-(6-(6-fluoro-3-pyridinyl)-5-methyl-1,3-benzothiazol-2-yl)-2-(3,3,3-trifluoropropyl-sulfonyl)-N-(2-sulfamoylethyl)acetamide] | < 10 nM | 13 nM
Cc1cc2nc(C(C(=O)NCCS(N)(=O)=O)S(=O)(=O)CC(C)C)sc2cc1-c1ccc(F)nc1 (stereo not shown) [Example B131, 2-(6-(6-fluoro-3-pyridinyl)-5-methyl-1,3-benzothiazol-2-yl)-2-(isobutylsulfonyl)-N-(2-sulfamoylethyl)acetamide] | < 10 nM | 12 nM
Cc1cc2nc(C(C(=O)NCCS(N)(=O)=O)S(=O)(=O)C(C)C)sc2cc1-c1ccc(F)nc1 (stereo not shown) [Example B132, 2-(6-(6-fluoro-3-pyridinyl)-5-methyl-1,3-benzothiazol-2-yl)-2-(isopropylsulfonyl)-N-(2-sulfamoylethyl)acetamide] | < 10 nM | 411 nM
NS(=O)(=O)CCNC(=O)C(c1nc2c(F)cc(-c3ccccc3)cc2s1)S(=O)(=O)Cc1ccccc1 (stereo not shown) [Example B133, 2-(benzylsulfonyl)-2-(4-fluoro-6-phenyl-1,3-benzothiazol-2-yl)-N-(2-sulfamoylethyl)acetamide] | < 10 nM | 22 nM
NS(=O)(=O)CCNC(=O)C(c1nc2cc(F)c(-c3ccccc3)cc2s1)S(=O)(=O)CCNC(=O)OCc1ccccc1 (stereo not shown) [Example B135, benzyl (2-((1-(5-fluoro-6-phenyl-1,3-benzothiazol-2-yl)-2-oxo-2-((2-sulfamoyl-ethyl)amino)ethyl)sul-fonyl)ethyl)carbamate] | < 10 nM | 56 nM
NS(=O)(=O)CCNC(=O)C(c1nc2cc(F)c(-c3ccccc3)cc2s1)S(=O)(=O)CCC(F)(F)F (stereo not shown) [Example B136, 2-(5-fluoro-6-phenyl-1,3-benzothiazol-2-yl)-N-(2-sulfamoylethyl)-2-[(3,3,3-trifluoropropyl)sulfonyl]a-cetamide] | < 10 nM | 11 nM
Cn1cc(-c2cc3sc(C(C(=O)NCCS(N)(=O)=O)S(=O)(=O)Cc4ccccc4)nc3cc2F)cn1 (stereo not shown) [Example B138, 2-(benzylsulfonyl)-2-(5-fluoro-6-(1-methyl-1H-pyrazol-4-yl)-1,3-benzothiazol-2-yl)-N-(2-sulfamoylethyl)acetamide] | < 10 nM | 142 nM
NS(=O)(=O)CCNC(=O)C(c1nc2ccc(-c3cncnc3)cc2s1)S(=O)(=O)CCC(F)(F)F (stereo not shown) [Example B139, 2-(6-(5-Pyrimidinyl)-1,3-benzothiazol-2-yl)-N-(2-sulfamoylethyl)-2-((3,3,3-trifluoropropyl)sulfonyl)a-cetamide] | 16 nM | 2090 nM
NS(=O)(=O)CCNC(=O)C(c1nc2ccc(-c3cncnc3)cc2s1)S(=O)(=O)Cc1ccccc1 (stereo not shown) [Example B140, 2-(benzylsulfonyl)-2-(6-(5-pyrimidinyl)-1,3-benzothiazol-2-yl)-N-(2-sulfamoylethyl)acetamide] | 13.7 nM | 8790 nM
COCCS(=O)(=O)C(C(=O)NCCS(N)(=O)=O)c1nc2ccc(-c3cncnc3)cc2s1 (stereo not shown) [Example B141, 2-((2-methoxyethyl)sul-fonyl)-2-(6-(5-pyrimidinyl)-1,3-benzothiazol-2-yl)-N-(2-sulfamoylethyl)acetamide] | 14.7 nM | 2210 nM

Next, values leading:

IC50 (Endothelial lipase (EL)) | IC50 (hepatic lipase (HL)) | Structure (SMILES)
0.7 nM | 48.2 nM | COCCNC(=O)c1ccc(-c2ccc3nc(C(C(=O)NCCS(N)(=O)=O)S(=O)(=O)Cc4ccc(OC(F)(F)F)cc4)sc3c2)cc1 (stereo not shown) [Example B113, N-(2-methoxyethyl)-4-(2-(2-oxo-2-((2-sulfamoyl-ethyl)amino)-1-((4-(trifluoromethoxy)ben-zyl)sulfonyl)ethyl)-1,3-benzothiazol-6-yl)ben-zamide]
< 10 nM | 182 nM | COCCNC(=O)c1ccc(-c2ccc3nc(C(C(=O)NCCS(N)(=O)=O)S(=O)(=O)Cc4ccc(C(F)(F)F)cc4)sc3c2)cc1 (stereo not shown) [Example B116, N-(2-methoxyethyl)-4-(2-(2-oxo-2-((2-sulfamoyl-ethyl)amino)-1-((4-(trifluoromethyl)benzyl)sul-fonyl)ethyl)-1,3-benzothiazol-6-yl)ben-zamide]
< 10 nM | 176 nM | COCCNC(=O)c1ccc(-c2ccc3nc(C(C(=O)NCCS(N)(=O)=O)S(=O)(=O)Cc4cccc(F)c4)sc3c2)cc1 (stereo not shown) [Example B117, 4-(2-(1-((3-fluorobenzyl)sulfonyl)-2-oxo-2-((2-sulfamoylethyl)a-mino)ethyl)-1,3-benzothiazol-6-yl)-N-(2-methoxyethyl)benzamide]
< 10 nM | 10 nM | NS(=O)(=O)CCNC(=O)C(c1nc2ccc(-c3ccccc3)cc2s1)S(=O)(=O)CC1CC1 (stereo not shown) [Example B118, 2-((cyclopropylmethyl)sul-fonyl)-2-(6-phenyl-1,3-benzothiazol-2-yl)-N-(2-sulfamoylethyl)acetamide]
< 10 nM | 15 nM | N#Cc1cccc(CS(=O)(=O)C(C(=O)NCCS(N)(=O)=O)c2nc3ccc(-c4ccccc4)cc3s2)c1 (stereo not shown) [Example B120, 2-((3-cyanobenzyl)sul-fonyl)-2-(6-phenyl-1,3-benzothiazol-2-yl)-N-(2-sulfamoylethyl)acetamide]
18 nM | 400 nM | CC(C)CS(=O)(=O)C(C(=O)NCCS(N)(=O)=O)c1nc2ccc(-c3cnn(CCN4CCOCC4)c3)cc2s1 (stereo not shown) [Example B123, 2-(isobutylsulfonyl)-2-(6-{1-[2-(4-morpholinyl)eth-yl]-1H-pyrazol-4-yl}-1,3-benzothiazol-2-yl)-N-(2-sulfamoylethyl)a-cetamide]
26 nM | 830 nM | COCCS(=O)(=O)C(C(=O)NCCS(N)(=O)=O)c1nc2ccc(Br)cc2s1 (stereo not shown) [Example B124, 2-(6-bromo-1,3-benzothiazol-2-yl)-2-((2-methoxyethyl)sulfonyl)-N-(2-sulfamoylethyl)a-cetamide]
< 10 nM | < 10 nM | Cc1cc2nc(C(C(=O)NCCS(N)(=O)=O)S(C)(=O)=O)sc2cc1-c1ccc(F)nc1 (stereo not shown) [Example B129]
< 10 nM | 18 nM | COCCS(=O)(=O)C(C(=O)NCCS(N)(=O)=O)c1nc2c(F)cc(-c3ccccc3)cc2s1 (stereo not shown) [Example B134, 2-(4-fluoro-6-phenyl-1,3-benzothiazol-2-yl)-2-((2-methoxyethyl)sulfonyl)-N-(2-sulfamoylethyl)a-cetamide]
< 10 nM | 17500 nM | CS(=O)(=O)C(C(=O)NCc1csc(N)n1)c1nc2ccc(-c3ccc(C(=O)N4CCOCC4)cc3)cc2s1 (stereo not shown) [Example B137, N-((2-amino-1,3-thiazol-4-yl)methyl)-2-(methylsulfonyl)-2-(6-(4-(4-morpholinylcarbonyl)phen-yl)-1,3-benzothiazol-2-yl)acetamide]
> 10 nM | 77 nM | COc1cc(-c2ccc3nc(C(C(=O)NCCS(N)(=O)=O)S(C)(=O)=O)sc3c2)c(F)cn1 (stereo not shown) [Example B142, 2-(6-(5-fluoro-2-methoxy-4-pyridinyl)-1,3-benzothiazol-2-yl)-2-(methylsulfonyl)-N-(2-sulfamoylethyl)acetamide]
18 nM | 4740 nM | NS(=O)(=O)CCNC(=O)C(c1nc2ccc(-c3cncnc3)cc2s1)S(=O)(=O)Cc1ccc(F)cc1 (stereo not shown) [Example B143, 2-((4-fluorobenzyl)sul-fonyl)-2-(6-(5-pyrimidinyl)-1,3-benzothiazol-2-yl)-N-(2-sulfamoylethyl)acetamide]
